Source: patent US10864273B2, “Thiobase compounds for photodynamic therapy” (CASE WESTERN RESERVE UNIVERSITY, priority 2015, dated 2020)
Read-outs that look alike come from different tables or passages of the source.

What was measured:
[1] = Singlet oxygen quantum yield by phosphorescence at 1270 nm, thiothymine series; type: physicochemical; settings: for ΦΔ singlet oxygen quantum yield: O2-saturated acetonitrile solution, 355 nm excitation, phenalenone standard
Procedure: Singlet oxygen phosphorescence measurements were performed using a modified Fluorolog-3 spectrometer (HORIBA, Jobin Yvon) in conjunction with a NIR sensitive photomultiplier tube (H10330A-45, Hamamatsu). A 450 W Xe lamp was used for steady state excitation to record singlet oxygen phosphorescence spectra and a Spectra Physics GCR-150-30 Nd:YAG laser (355 nm, 7 ns pulse width) was used for pulsed excitation to collect singlet oxygen phosphorescence decay traces at 1270 nm, which were stored on a digital oscilloscope (TDS 360, Tektronics).
O2-saturated acetonitrile solutions of the thiobases and standard (phenalenone) with matching absorbance at 355 nm (O.D.=0.3 at 1 cm optical path length) were prepared. The measurements were performed in a 1×1 cm quartz cell. Singlet oxygen quantum yields were determined from the phosphorescence intensity at 1270 nm at the end of the laser pulse using phenalenone as standard (ΦΔ=0.98).
While ultrafast internal conversion to the ground state and the low triplet yield in thymidine provide the nucleobase with its high degree of photostability, the near-unity triplet yields in the thiothymine series account for their potent photo-sensitization properties. We have obtained evidence for significant photoreactivity of these triplet states by performing time-resolved energy transfer experiments to molecular oxygen, thus generating singlet oxygen, as monitored by its characteristic phosphorescence at 1270 nm (FIG. 3 and FIG. 4). The singlet oxygen quantum yields for 4tThd and 2,4dtThy were determined using phenalenone as a standard (ΦΔ=0.98) and are summarized in Table 1. It should be remarked that quantification of the singlet oxygen yield is one of the primary methods used to determine the efficacy of a prospective photosensitizer for phototherapeutic applications. To our knowledge, this is the first work to report the singlet oxygen yield of 2,4dtThy. […] Consistent with the spectroscopic analysis herein, the singlet oxygen yield of 2tThy is smaller than those of 4tThd and 2,4dtThy.

[2] = Steady-state absorption spectroscopy, thymine series; type: physicochemical; settings: phosphate buffer solution at pH 7.4
From the text: 2-thiothymine (2tThy, 98% purity) was obtained from AK Scientific, 4-thiothymidine (4tThd, 99% purity) was obtained from Carbosynth Ltd., and 2-thiothymidine (2tThd) and 2,4-dithiothymine (2,4dtThy) were obtained from Sigma Aldrich. All compounds were used as received. The purity of these compounds was ensured by using fluorescence spectroscopy and by comparison with the published absorption maxima and their corresponding extinction coefficients. Phosphate buffer solutions were freshly prepared using 0.12 g of sodium dihydrogen phosphate and 0.089 g of disodium hydrogen phosphate dissolved in 100 mL of ultrapure water and adjusted to pH 7.4 using a 2 M NaOH solution. Steady-state absorption spectra were measured using a Cary 100 Bio spectrometer. All absorption spectra were corrected for the solvent background by subtraction of the absorption of the solvent.
Specifically, sulfur substitution of the C2 carbonyl in thymine results in about a 10 nm redshift in the absorption maximum, whereas substitution at the C4 position results in a redshift of about 70 nm. Remarkably, double-substitution results in about a 100 nm redshift of the lowest-energy absorption band of thymidine (ΔE=9905 cm^−1), without an appreciable change in the magnitude of the extinction coefficient at the corresponding wavelengths (1×10^4 M^−1 cm^−1). Replacement of an oxygen atom by a sulfur atom in a carbonyl bond is expected to shift the absorption spectrum to the red because the thiocarbonyl is weaker than the carbonyl bond and the excited electronic states in thiocarbonyl compounds are typically found at lower energies. However, the difference in bond strengths between a carbonyl and thiocarbonyl bond cannot solely explain the large spectral shift observed between 2tThy/2tThd and 4tThd. Furthermore, the redshift in the absorption spectrum of 2,4dtThy cannot simply be expressed as a linear combination of the absorption spectra of the 2tThy/2tThd and 4tThd derivatives. […] Glycosylation of 2tThy, generating 2tThd, results in a 2 nm redshift in the absorption maximum and about 2-fold increase in the molar absorptivity coefficients (FIG. 1B). The same effect has been previously documented in the natural bases and in other thiobases. Therefore, glycosylation of 2,4dtThy to form 2,4-dithiothymidine is expected to redshift the absorption spectrum slightly and to increase the molar absorptivity coefficients.

[3] = Femtosecond broadband transient absorption spectroscopy of the thiothymine series (intersystem crossing, triplet yield); type: physicochemical; settings: for τISC intersystem crossing lifetime: probe 600 nm
Procedure: Femtosecond transient absorption spectroscopy was performed using a Ti— Sapphire regenerative amplifier laser system (Libra-HE, Coherent, Inc.; 800 nm, 100 fs, 4.0 W at 1 kHz). 2.6 W of the 800 nm beam were used to pump an optical parametric amplifier (TOPAS, Quantronix/Light Conversion) to generate the excitation beam at selected wavelengths of 320, 335, and 360 nm. Contributions to the excitation beam from other wavelengths and polarizations were removed by a reflective wavelength filter (λ-filter) and a Glan-Taylor polarizer, respectively, and the polarization was randomized using a depolarizing plate in order to prevent rotational effects from contributing to the dynamics, as described in details elsewhere.
A Helios spectrometer (Ultrafast Systems, LLC.) was used for pump-probe measurements. A fraction of the fundamental (800 nm) beam from the Libra-HE was used to generate white light continuum (WLC). The Helios spectrometer uses an optical delay line with a maximum delay of ˜3 ns for the 800 nm beam, which was used to pump a continuously-moving 2 mm CaF2 plate for generation of the WLC broadband probe pulse covering the spectral range from ˜320-700 nm. The probe light was then passed through a 730 nm low-pass dichroic optical filter, so as to block residual fundamental beam and to avoid saturating the complementary metal-oxide-semiconductor (CMOS) detectors. The probe pulse was then split into two beams, both of which were recollimated and focused into the optical fibers leading to their respective CMOS detectors. In this setup, one of the beams serves as reference, while the other is used to probe the sample of interest. A synchronized chopper wheel was used to block every other pump pulse, such that the difference in absorption between two consecutive measurements gives the transient spectrum. The excitation beam was attenuated to 1 μJ/pulse at the sample using a neutral density optical filter before entering the spectrometer. The excitation pulse was focused to a beam diameter three times larger than that of the probe beam at the sample position. Detection time windows of 20 and 200 ps were used in this work.
All solutions were prepared using pH 7.4 aqueous phosphate buffer, with a total phosphate concentration of 16 mM. The solution was continuously stirred in a 2 mm optical path length quartz cell (Starna Cells, Inc.) using a Teflon-coated magnetic stirring bar so as to bring fresh sample to the pump-probe region for each measurement. The solution in the cuvette was replaced with a fresh sample, from the same stock solution, every 5-7 scans, so that all scans had no more than 5% decrease in absorbance at the lowest-energy absorption-band maximum as determined by steady-state absorption spectroscopy.
All broadband transient absorption data were corrected for group velocity dispersion (GVD) of the WLC using a home-made LabView program (National Instruments, Inc.) as previously described. 3 Analysis of transient absorption kinetics was performed in Igor Pro 6.32A (WaveMetrics, Inc.) using the target analysis method, as described previously, and a sequential kinetic model convoluted with an instrument response function of ˜200 fs (FWHM). The instrument response was determined from the coherence signal of neat methanol generated at the sample cell. Global fitting analysis was performed using 15 to 30 representative kinetic traces covering the full range of probe wavelengths. At least three independent datasets (i.e., recorded on three different days) were used in the analysis and all uncertainties are reported as twice the standard deviation of the average lifetime. Decay associated spectra shown in FIG. 7A were extracted from the global fitting analysis of the transient decay traces taken every third probe wavelength across the entire WLC range.

[4] = Estimated maximum UVA treatment depth in tissue from absorption cutoff and penetration depth curve; settings: cutoff ε=1000 M^−1 cm^−1
From the text: Longer wavelengths of light are able to penetrate deeper into tissues due to less scattering and reduced absorption by natural biomolecules (FIG. 5). Therefore, the redshifted absorption of 2,4dtThy as compared to 4tThd opens up the possibility for it to be effectively used as a photosensitizer in deeper tissue UVA-activated therapies. The maximum treatment depth for these two compounds was estimated by defining an arbitrary absorption cutoff of ε=1000 M^−1 cm^−1 (i.e., 371 nm for 4tThd and 395 nm for 2,4dtThy; FIG. 5). […] In order to account for this, the area under the penetration depth curve (FIG. 5) was integrated up to the respective absorption cutoff for each compound. Using this integration method the total increase in treatment depth of 2,4dtThy relative to 4tThd was determined to be about 67%. This increase likely serves as an upper bound limit for the actual relative increase because the molar absorptivity coefficients of the compounds will no doubt play a role. However, because the absorption of radiation at a given wavelength is not only dependent on a photosensitizer's molar absorptivity coefficients but also on its concentration in the tissue, our best estimation is that 2,4dtThy could facilitate UVA-activated treatment in tissues 23 to 67% deeper than those that can be effectively treated by 4tThd.

[5] = pH 7.4 phosphate buffer solution; previously reported values; cited from earlier work
[6] = cited from earlier work
[7] = system: cancerous cell lines; settings: in conjunction with a low dose of UVA radiation; in vitro; cited from earlier work
[8] = system: 3D human skin models; settings: in conjunction with a low dose of UVA radiation; lower epidermis of 3D human skin models; cited from earlier work
[9] = system: bladder cancer; settings: in conjunction with a low dose of UVA radiation; animal models; cited from earlier work
[10] = O2-saturated acetonitrile; literature / standard value; cited from earlier work
[11] = O2-saturated acetonitrile solution; previously measured / standard value; cited from earlier work
[12] = pH 7.4 phosphate buffer solution

| maximum of lowest-energy absorption band [2] [nm] | ε at maximum of lowest-energy absorption band [2] | triplet yield [3] | ΦT triplet quantum yield [3, 12] | wavelength at arbitrary absorption cutoff [4] [nm] | SMILES | 1O2 yield lower than that of the corresponding thiouracil derivative [1] [%] | singlet oxygen yield [1] [%] | ΦΔ singlet oxygen quantum yield [1] | increase in rate of intersystem crossing going from 2-thiothymine [3] [fold] | intersystem crossing rate increase relative to Thd [3] [fold] | τISC intersystem crossing lifetime [3, 12] [fs] | ΦT triplet quantum yield [5] | triplet-triplet extinction coefficient ([6]; at 520 nm, previously reported, own determination in agreement) [M⁻¹ cm⁻¹] | reported triplet yield of the reference compound ([6]; reference for relative actinometry) | killing of cancerous cell lines [7] | induction of cytotoxic lesions [8] | treatment of bladder cancer [9] | ΦΔ singlet oxygen quantum yield [10] | ΦΔ singlet oxygen quantum yield [11] |
| --- | --- | --- | --- | --- | --- | --- | --- | --- | --- | --- | --- | --- | --- | --- | --- | --- | --- | --- | --- |
| 363 | ≈ 9.7×10^3 M^−1 cm^−1 | approximately 90% | >0.9 | 395 | Cc1c[nH]c(=S)[nH]c1=S [2,4dtThy, 2,4-dithiothymine] | 6 | ~50 | 0.46 ± 0.02 | 3.5 | 4.2 | 180±40 | – | – | – | – | – | – | – | – |
| – | – | – | – | 371 | Cc1cn([C@H]2C[C@H](O)[C@@H](CO)O2)c(=O)[nH]c1=S [4tThd, 4-thiothymidine] | 14 | – | 0.42 ± 0.02 | – | 3.2 | 240 ± 20 | 0.85 ± 0.15 | 2500 ± 700 | 1.0±0.1 | effectively kill cancerous cell lines in vitro | induce cytotoxic lesions in the lower epidermis of 3D human skin models | treat bladder cancer in animal models | – | – |
| – | – | – | – | – | O=C1C=Cc2cccc3cccc1c23 [phenalenone] | – | – | – | – | – | – | – | – | – | – | – | – | 0.98 | 0.98 |
